This is an account of results in US20250388589A1, “TRICYCLIC HETEROCYCLIC DERIVATIVES, COMPOSITIONS AND USES THEREOF” (Danatlas Pharmaceuticals Co., Ltd., priority 2022, published 2025).

A word on the pIC50: it is −log10 of the IC50, conventionally taken in molar units.

The target in assay [1] is hPARG (C-terminal His6-tag) (Homo sapiens (Human), UniProt Q86W56). The experiment in a line: PARG Enzymatic Activity Assay (HTRF). The class given is biochemical. The following applies: hPARG 65 pM final, biotinylated-NAD ribosylated PARP1 8 nM final. The essentials:
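E. coli-expressed enzyme (65 pM final) preincubated 60 min RT with compounds (10-point 4-fold dilution, duplicate) in 50 mM Tris pH 7.4, 3 mM EDTA, 1 mM DTT, 50 mM KCl, 0.01% Tween 20. Biotinylated-NAD ribosylated PARP1 substrate (8 nM final) reacted 10 min RT; Eu-streptavidin/anti-6HIS-XL665 HTRF read 665/620 nm after 60 min. IC50 from 4-parameter Hill fit.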

Assay [2] concerns Kuramochi cell line. The experiment in a line: Cell Viability Assay (Cell Titer-Glo, 7 days). The class given is cell-based. The following applies: 168 h, Kuramochi cells, 7 days incubation, read-out: PARG Cell viability (IC50). The essentials:
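Kuramochi cells in RPMI with 10% FBS, seeded at 400 cells/well, were treated with a 9-point 3-fold dilution series in duplicate for 7 days at 37 °C, 5% CO2. Viability by CellTiter-Glo luminescence, normalised to DMSO and medium-only controls; IC50 from 4-parameter Hill fit.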
(In general: Cellular ATP, detected with luciferase, serves as a proxy for viable cell number.)

pIC50: −log10 of the molar value.

Chain of hPARG (C-terminal His6-tag) (Q86W56 whole entry): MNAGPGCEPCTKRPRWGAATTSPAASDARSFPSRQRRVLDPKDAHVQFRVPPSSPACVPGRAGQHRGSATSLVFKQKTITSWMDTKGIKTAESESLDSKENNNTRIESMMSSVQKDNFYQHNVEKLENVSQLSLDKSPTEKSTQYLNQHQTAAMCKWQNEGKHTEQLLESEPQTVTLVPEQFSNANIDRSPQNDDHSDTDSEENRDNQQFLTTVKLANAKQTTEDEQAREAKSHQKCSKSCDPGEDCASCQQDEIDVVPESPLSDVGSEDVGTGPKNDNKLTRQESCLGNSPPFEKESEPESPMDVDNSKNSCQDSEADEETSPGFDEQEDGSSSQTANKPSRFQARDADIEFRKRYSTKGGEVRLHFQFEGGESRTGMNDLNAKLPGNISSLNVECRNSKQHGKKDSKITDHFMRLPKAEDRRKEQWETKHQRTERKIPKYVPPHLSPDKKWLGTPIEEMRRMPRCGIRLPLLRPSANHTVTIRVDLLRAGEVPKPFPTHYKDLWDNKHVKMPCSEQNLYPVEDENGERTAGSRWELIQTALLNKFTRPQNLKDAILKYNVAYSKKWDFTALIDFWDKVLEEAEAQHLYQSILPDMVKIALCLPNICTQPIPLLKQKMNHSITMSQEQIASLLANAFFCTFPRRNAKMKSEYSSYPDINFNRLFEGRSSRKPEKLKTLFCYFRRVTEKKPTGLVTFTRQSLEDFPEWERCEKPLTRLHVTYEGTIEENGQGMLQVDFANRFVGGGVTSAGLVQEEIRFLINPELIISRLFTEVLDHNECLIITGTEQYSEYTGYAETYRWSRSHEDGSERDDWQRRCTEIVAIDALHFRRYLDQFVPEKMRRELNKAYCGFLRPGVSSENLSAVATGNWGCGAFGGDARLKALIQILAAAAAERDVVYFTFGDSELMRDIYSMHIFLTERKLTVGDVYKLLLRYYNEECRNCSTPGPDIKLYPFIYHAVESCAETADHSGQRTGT

As for `CN(C)C(=O)N1CCC(c2ncnc3c2c2ccc(S(=O)(=O)NC4(C)CC4)cc2n3-c2nnc(C(F)F)s2)CC1` [Example 153, 4-(9-(5-(Difluoromethyl)-1,3,4-thiadiazol-2-yl)-7-(N-(1-methylcyclopropyl)sulfamoyl)-9H-pyrimido[4,5-b]indol-4-yl)-N,N-dimethylpiperidine-1-carboxamide], the pIC50 in assay [1] and in assay [2] was above 7.00 in each case.

As for `CC(C)C(=O)N1CCN(c2ncnc3c2c2ccc(S(=O)(=O)NC4(C#N)CC4)cc2n3-c2nnc(C(F)F)s2)C[C@@H]1CO` [Example 154, (R)—N-(1-Cyanocyclopropyl)-9-(5-(difluoromethyl)-1,3,4-thiadiazol-2-yl)-4-(3-(hydroxymethyl)-4-isobutyrylpiperazin-1-yl)-9H-pyrimido[4,5-b]indole-7-sulfonamide], the pIC50 in assay [1] and in assay [2] was above 7.00 each time.

Take `CCN1CCN(c2ncnc3c2c2ccc(S(=O)(=O)NC4(C#N)CC4)cc2n3-c2nnc(C(F)F)s2)CC1=O` [Example 155, N-(1-cyanocyclopropyl)-9-(5-(difluoromethyl)-1,3,4-thiadiazol-2-yl)-4-(4-ethyl-3-oxopiperazin-1-yl)-9H-pyrimido[4,5-b]indole-7-sulfonamide]: the pIC50 in assay [1] and in assay [2] was above 7.00 throughout.

Take `N#CC1(NS(=O)(=O)c2ccc3c4c(N5CCn6c(nnc6C(F)(F)F)C5)ncnc4n(-c4nnc(C(F)F)s4)c3c2)CC1` [Example 156, N-(1-cyanocyclopropyl)-9-(5-(difluoromethyl)-1,3,4-thiadiazol-2-yl)-4-(3-(trifluoromethyl)-5,6-dihydro-[1,2,4]triazolo[4,3-a]pyrazin-7(8H)-yl)-9H-pyrimido[4,5-b]indole-7-sulfonamide]: the pIC50 in assay [1] and in assay [2] was above 7.00 throughout.

On to `CCCN1CCN(c2ncnc3c2c2ccc(S(=O)(=O)NC4(C#N)CC4)cc2n3-c2nnc(C(F)F)s2)C[C@@H]1C` [Example 157, (S)-N-(1-cyanocyclopropyl)-9-(5-(difluoromethyl)-1,3,4-thiadiazol-2-yl)-4-(3-methyl-4-propylpiperazin-1-yl)-9H-pyrimido[4,5-b]indole-7-sulfonamide], for which the pIC50 in assay [1] and in assay [2] was above 7.00 throughout.

As for `CC(C)CN1CCN(c2ncnc3c2c2ccc(S(=O)(=O)NC4(C#N)CC4)cc2n3-c2nnc(C(F)F)s2)CC1=O` [Example 158, N-(1-cyanocyclopropyl)-9-(5-(difluoromethyl)-1,3,4-thiadiazol-2-yl)-4-(4-isobutyl-3-oxopiperazin-1-yl)-9H-pyrimido[4,5-b]indole-7-sulfonamide], the pIC50 in assay [1] and in assay [2] was above 7.00 throughout.

In the case of `C[C@H]1CN(c2ncnc3c2c2ccc(S(=O)(=O)NC4(C#N)CC4)cc2n3-c2nnc(C(F)F)s2)CCN1CC(F)(F)F` [Example 159, (S)-N-(1-cyanocyclopropyl)-9-(5-(difluoromethyl)-1,3,4-thiadiazol-2-yl)-4-(3-methyl-4-(2,2,2-trifluoroethyl)piperazin-1-yl)-9H-pyrimido[4,5-b]indole-7-sulfonamide], the pIC50 in assay [1] is above 7.00; in assay [2], 6.00 to 7.00.

As for `N#CC1(NS(=O)(=O)c2ccc3c4c(N5CCN6CCC[C@H]6C5)ncnc4n(-c4nnc(C(F)F)s4)c3c2)CC1` [Example 160, (S)—N-(1-Cyanocyclopropyl)-9-(5-(difluoromethyl)-1,3,4-thiadiazol-2-yl)-4-(hexahydropyrrolo[1,2-a]pyrazin-2(1H)-yl)-9H-pyrimido[4,5-b]indole-7-sulfonamide], the pIC50 in assay [1] and in assay [2] was above 7.00 throughout.

For the compound `N#CC1(NS(=O)(=O)c2ccc3c4c(N5CCN6CCOC[C@H]6C5)ncnc4n(-c4nnc(C(F)F)s4)c3c2)CC1` [Example 161, (R)-N-(1-cyanocyclopropyl)-9-(5-(difluoromethyl)-1,3,4-thiadiazol-2-yl)-4-(hexahydropyrazino[2,1-c][1,4]oxazin-8(1H)-yl)-9H-pyrimido[4,5-b]indole-7-sulfonamide], the pIC50 in assay [1] and in assay [2] was above 7.00 in each case.

For `N#CC1(NS(=O)(=O)c2ccc3c4c(N5CCN6CCOC[C@@H]6C5)ncnc4n(-c4nnc(C(F)F)s4)c3c2)CC1` [Example 162, (S)-N-(1-cyanocyclopropyl)-9-(5-(difluoromethyl)-1,3,4-thiadiazol-2-yl)-4-(hexahydropyrazino[2,1-c][1,4]oxazin-8(1H)-yl)-9H-pyrimido[4,5-b]indole-7-sulfonamide], the pIC50 in assay [1] and in assay [2] was above 7.00 in each case.

Take `CCN1CCN(c2ncnc3c2c2ccc(S(=O)(=O)NC4(C#N)CC4)cc2n3-c2nnc(C(F)F)s2)C[C@@H]1C` [Example 163, (S)-N-(1-cyanocyclopropyl)-9-(5-(difluoromethyl)-1,3,4-thiadiazol-2-yl)-4-(4-ethyl-3-methylpiperazin-1-yl)-9H-pyrimido[4,5-b]indole-7-sulfonamide]: the pIC50 in assay [1] was 6.00 to 7.00; in assay [2] it was above 7.00.

For the compound `C[C@H]1CN(c2ncnc3c2c2ccc(S(=O)(=O)NC4(C#N)CC4)cc2n3-c2nnc(C(F)F)s2)CCN1CC1CC1` [Example 164, (S)-N-(1-cyanocyclopropyl)-4-(4-(cyclopropylmethyl)-3-methylpiperazin-1-yl)-9-(5-(difluoromethyl)-1,3,4-thiadiazol-2-yl)-9H-pyrimido[4,5-b]indole-7-sulfonamide], the negative logarithm of the IC50 (pIC50) in assay [1] and in assay [2] was above 7.00 each time.

Take `N#CC1(NS(=O)(=O)c2ccc3c4c(N5CC6OCCOC6C5)ncnc4n(-c4nnc(C(F)F)s4)c3c2)CC1` (stereo not drawn) [Example 165, N-(1-Cyanocyclopropyl)-9-(5-(difluoromethyl)-1,3,4-thiadiazol-2-yl)-4-(hexahydro-6H-[1,4]dioxino[2,3-c]pyrrol-6-yl)-9H-pyrimido[4,5-b]indole-7-sulfonamide]: the negative logarithm of the IC50 (pIC50) in assay [1] and in assay [2] was 6.00 to 7.00 each time.

As to `N#CC1(NS(=O)(=O)c2ccc3c4c(N5CCS(=O)(=O)CC5)ncnc4n(-c4nnc(C(F)F)s4)c3c2)CC1` [Example 166, N-(1-cyanocyclopropyl)-9-(5-(difluoromethyl)-1,3,4-thiadiazol-2-yl)-4-(1,1-dioxidothiomorpholino)-9H-pyrimido[4,5-b]indole-7-sulfonamide], the pIC50 in assay [1] was above 7.00; in assay [2] it was 6.00 to 7.00.

In the case of `N#CC1(NS(=O)(=O)c2ccc3c4c(N5CCN6C(=O)OC[C@H]6C5)ncnc4n(-c4nnc(C(F)F)s4)c3c2)CC1` [Example 167, (R)-N-(1-cyanocyclopropyl)-9-(5-(difluoromethyl)-1,3,4-thiadiazol-2-yl)-4-(3-oxotetrahydro-3H-oxazolo[3,4-a]pyrazin-7(1H)-yl)-9H-pyrimido[4,5-b]indole-7-sulfonamide], the pIC50 in assay [1] and in assay [2] was above 7.00 each time.

With `N#CC1(NS(=O)(=O)c2ccc3c4c(N5CCN6C(=O)COC[C@H]6C5)ncnc4n(-c4nnc(C(F)F)s4)c3c2)CC1` [Example 168, (R)—N-(1-Cyanocyclopropyl)-9-(5-(difluoromethyl)-1,3,4-thiadiazol-2-yl)-4-(4-oxohexahydropyrazino[2,1-c][1,4]oxazin-8(1H)-yl)-9H-pyrimido[4,5-b]indole-7-sulfonamide], the negative logarithm of the IC50 (pIC50) in assay [1] and in assay [2] was above 7.00 each time.

Consider `N#CC1(NS(=O)(=O)c2ccc3c4c(N5C[C@H]6COC[C@H]6C5)ncnc4n(-c4nnc(C(F)F)s4)c3c2)CC1` [Example 169, N-(1-Cyanocyclopropyl)-9-(5-(difluoromethyl)-1,3,4-thiadiazol-2-yl)-4-((3aR,6aS)-tetrahydro-1H-furo[3,4-c]pyrrol-5(3H)-yl)-9H-pyrimido[4,5-b]indole-7-sulfonamide], for which the pIC50 in assay [1] and in assay [2] was above 7.00 each time.

With `N#CC1(NS(=O)(=O)c2ccc3c4c(N5CCCOCC5)ncnc4n(-c4nnc(C(F)F)s4)c3c2)CC1` [Example 170, N-(1-Cyanocyclopropyl)-9-(5-(difluoromethyl)-1,3,4-thiadiazol-2-yl)-4-(1,4-oxazepan-4-yl)-9H-pyrimido[4,5-b]indole-7-sulfonamide], the pIC50 in assay [1] and in assay [2] was above 7.00 in each case.

As to `CO[C@@H]1CCN(c2ncnc3c2c2ccc(S(=O)(=O)NC4(C#N)CC4)cc2n3-c2nnc(C(F)F)s2)C[C@@H]1F` [Example 171, N-(1-Cyanocyclopropyl)-9-(5-(difluoromethyl)-1,3,4-thiadiazol-2-yl)-4-((3S,4R)-3-fluoro-4-methoxypiperidin-1-yl)-9H-pyrimido[4,5-b]indole-7-sulfonamide], the pIC50 in assay [1] and in assay [2] was above 7.00 each time.

Turning to `CO[C@H]1CCN(c2ncnc3c2c2ccc(S(=O)(=O)NC4(C#N)CC4)cc2n3-c2nnc(C(F)F)s2)C[C@@H]1F` [Example 172, N-(1-cyanocyclopropyl)-9-(5-(difluoromethyl)-1,3,4-thiadiazol-2-yl)-4-((3S,4S)-3-fluoro-4-methoxypiperidin-1-yl)-9H-pyrimido[4,5-b]indole-7-sulfonamide], the pIC50 in assay [1] and in assay [2] was above 7.00 in each case.

With `CO[C@H]1CCN(c2ncnc3c2c2ccc(S(=O)(=O)NC4(C#N)CC4)cc2n3-c2nnc(C(F)F)s2)C[C@H]1F` [Example 173, N-(1-cyanocyclopropyl)-9-(5-(difluoromethyl)-1,3,4-thiadiazol-2-yl)-4-((3R,4S)-3-fluoro-4-methoxypiperidin-1-yl)-9H-pyrimido[4,5-b]indole-7-sulfonamide], the pIC50 in assay [1] and in assay [2] was above 7.00 each time.
